Laboratory results: ChEMBL document CHEMBL2429745, “Identification of a new class of glucokinase activators through structure-based design” (J Med Chem, 2013)
The source made the active and inactive calls. The calls are words filed in the database; no cut-off is given here.

How the values were obtained:
Hexokinase-4 = target: T1, Hexokinase-4 (Homo sapiens, UniProt P35557); test: Allosteric activation of human glucokinase using glucose as substrate measured every 10 secs for 5 mins
T1 sequence (P35557 whole entry): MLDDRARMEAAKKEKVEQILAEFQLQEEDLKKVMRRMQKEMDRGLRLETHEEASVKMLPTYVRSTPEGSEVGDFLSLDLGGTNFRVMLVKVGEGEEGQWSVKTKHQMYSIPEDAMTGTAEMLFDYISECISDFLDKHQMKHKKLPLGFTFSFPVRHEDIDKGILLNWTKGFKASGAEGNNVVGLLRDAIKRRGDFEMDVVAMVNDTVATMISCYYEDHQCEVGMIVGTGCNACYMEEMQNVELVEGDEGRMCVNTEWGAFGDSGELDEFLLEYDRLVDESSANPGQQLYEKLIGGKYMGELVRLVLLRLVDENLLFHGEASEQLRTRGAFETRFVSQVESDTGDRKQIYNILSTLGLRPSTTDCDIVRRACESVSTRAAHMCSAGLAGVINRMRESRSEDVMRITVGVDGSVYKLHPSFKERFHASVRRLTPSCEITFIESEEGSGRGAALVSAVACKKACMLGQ

Rattus norvegicus = test: Antidiabetic activity in high fat-fed Zucker diabetic fatty rat assessed as decrease in blood glucose AUC at 50 mg/kg, po after 21 days on high-fat diet measured for 2 hrs post dose by OGTT relative to control; set-up: scale not given: the % may be the effect or the level left
Mus musculus [1] = test: Toxicity in C57BL/6J mouse assessed as induction of hypoglycemia at 50 mg/kg, po administered 30 mins prior to glucose challenge measured over 2 hrs; assay type: organism-based; set-up: dose 50 mg/kg, route oral; conditions: in vivo
[2] = Terminal plasma concentration in C57BL/6J mouse at 50 mg/kg, po administered 30 mins measured after 2.5 hrs; assay type: ADME, organism-based; set-up: dose 50 mg/kg, route oral; conditions: read-out: Cp(T)
Mus musculus [3] = test: Antidiabetic activity in C57BL/6J mouse assessed as reduction of glucose excursion at 50 mg/kg, po administered 30 mins prior to glucose challenge measured over 2 hrs by OGTT; assay type: functional, organism-based; set-up: dose 50 mg/kg

SMILES	EC50 (Hexokinase-4)	also measured
Cc1csc(Nc2ncc(Cl)cc2OCc2ccccc2)n1	796 nM	–
Cc1csc(Nc2ncc(SCc3ccccn3)cc2OCc2ccccc2)n1	77 nM	–
COc1cccc(COc2cccnc2Nc2nc(C)cs2)c1	3220 nM	–
N#C[C@@H]1CCCN1C(=O)CNC12CC3CC(CC(O)(C3)C1)C2 [VILDAGLIPTIN]	–	Activity (Rattus norvegicus): 24%
Cc1csc(Nc2ncccc2OCc2cccc(O)c2)n1	3440 nM	–
Cc1csc(Nc2ncc(Sc3ccccn3)cc2OCc2ccccc2)n1	231 nM	–
CC(C)c1csc(Nc2ncc(Br)cc2OCc2ccccc2)n1	240 nM	–
Cc1csc(Nc2ncccc2OCc2cccc3cccnc23)n1	1700 nM	–
Cc1csc(Nc2ncccc2OCc2ccccn2)n1	12300 nM	–
CCc1csc(Nc2ncc(Br)cc2OCc2ccccc2)n1	562 nM	–
Cc1csc(Nc2ncc(SCCn3ccnc3)cc2OCc2ccccc2)n1	325 nM	–
Cc1csc(Nc2ncc(Br)cc2OCc2ccccc2)n1	687 nM	–
CC(C)Cc1csc(Nc2ncc(Br)cc2OCc2ccccc2)n1	356 nM	–
Cc1csc(Nc2ncc(Sc3ccccc3)cc2OCc2ccccc2)n1	208 nM	–
Cc1csc(Nc2ncccc2OCc2cccnc2)n1	7780 nM	–
CC(C)c1csc(Nc2ncc(SCCn3ccnc3)cc2OCc2ccccc2)n1	–	Activity (Rattus norvegicus): 23%; Activity (Mus musculus [1]): Non-toxic; concentration at 2.5 h [2]: 4500 ng/mL; Activity (Mus musculus [3]): Active
Cc1csc(Nc2ncc(SCc3ccccc3)cc2OCc2ccccc2)n1	235 nM	–
